Row | melting point | SMILES
1 | 158 to 161 °C | CC[C@H](C)[C@H](NC(=O)OC)C(=O)NN(Cc1ccc(N2CCCC2)cc1)C[C@H](O)[C@H](Cc1ccccc1)NC(=O)[C@@H](NC(=O)OC)C(C)(C)C [Example 9, 1-[p-(Pyrrolidin-1-yl)phenyl]-4(S)-hydroxy-2-[N-(N-methoxycarbonyl-(L)-isoleucyl)amino]-5(S)-[N-(N-methoxycarbonyl-(L)-tert-leucyl)amino]-6-phenyl-2-azahexane]
2 | 118 to 121 °C (dec.) | COC(=O)N[C@H](C(=O)N[C@@H](Cc1ccccc1)[C@@H](O)CN(Cc1ccc(N2CCCC2)cc1)NC(=O)[C@@H](NC(=O)OC)C(C)(C)C)C(C)C [Example 11, 1-[p-(Pyrrolidin-1-yl)phenyl]-4(S)-hydroxy-2-[N-(N-methoxycarbonyl-(L)-tert-leucyl)amino]-5(S)-[N-(N-methoxycarbonyl-(L)-valyl)amino]-6-phenyl-2-azahexane]

Reference: patent US6451973B1, “Anilinopeptide derivatives” (Novatis AG, priority 1996, dated 2002)
